We go through four compounds from patent publication US6313170A, “L-threonate ferrous, as well as pharmaceutical composition and use for improving and treating human anemia thereof” (priority 1997, dated 2001).

One data set relates to Hemolytic Anemia Model. The data set can be described thus: Hemolytic anemia model (acetylphenylhydrazine), rats. The settings on record: 8.64 mg Fe/kg (middle dosage / positive control). It counts as in vivo, male Wistar rats. The method, then:
1. […] All drugs were diluted by distilled water.
2. […] Animal diet also was purchased from Beijing Medical University.
(1) Hemolytic Anemia Model: Hemolytic anemia model was prepared for rats by injecting reagent of acetylphenylhydrazine (C8 H10 N2 O, produced by Beijing Biochemical Company) subcutaneously. The drug acetyphenylhydrazine was mixed with physiological saline to get its injection solution of 4% by weight of acetyphenylhydrazine. The solution was injected subcutaneously into each rat with a dosage of 57 μg/g at the beginning of the experiments. The content of blood hemochrome for each rat was examined at 2 days and 4 days later, respectively. When the mean blood hemochrome decreased to about 6.11±0.25 g %, rats were randomly divided into 6 groups of 18 rats each. […] The forth groups was positive drug control groups. The fifth group and the sixth group were designed as model group and normal control group, respectively.

In the next data set the test system is Blood-loss Anemia Model. Put plainly: Blood-loss anemia model, rats.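 Note: male Wistar rats made anemic by repeated orbital bloodletting, kept on iron-low diet with deionized water while dosed, compared against untreated anemic model and normal-diet control groups.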 The settings on record: 8.64 mg Fe/kg (middle dosage / positive controls), n=10.
A further data set has as its system lymphoma cells. The settings on record: cited from earlier work.
The conditions of data set [1]: rat, in vivo, po, 2.5 mg/kg, 72 h. The protocol:
Its chemical formula is Fe(C4 H7 O5)2.2H2 O, molecular weight:362.
Animals: Male Wistar rats were supplied by Experimental Animal Center, Tumor Institute of Heilongjian Province with body weight of 140 g-180 g. The iron-low diet contains iron 0.9 mg/kg.
50 rats were randomly divided into 5 groups of [19] 10 rats each. On this basis of administration of iron-low diet, each group of rats was administered respectively by gavage according to the dosage below:
High dosage group: Fe, 5 mg/kg, ferrous L-threonate, 32.32 mg/kg;
Middle dosage group: Fe, 2.5 mg/kg, ferrous L-threonate, 16.16 mg/kg;
Low dosage group: Fe, 1.0 mg/kg, ferrous L-threonate, 6.46 mg/kg;
Positive drug control group (ferrous sulfate): Fe, 2.5 mg/kg, ferrous sulfate, 12.43 mg/kg;
Negative drug control group (iron-low diet): Fe, 0.9 mg/kg (measured value).
After the end of 7 days feeding normal diet period, rats were supplemented with iron-low diet prepared according to AOAC formula for another 7 days. The 1-3 groups were treatment groups and supplemented with ferrous L-threonate 32.32 mg/kg (5 mgFe/kg, high dose group), 16.16 mg/kg (2.5 mg Fe/kg, middle dose group) and 6.46 mg/kg (1.0 mg Fe/kg, low dose group), respectively. The forth, positive drug control group, was provided with ferrous sulfate 12.43 mg/kg (2.5 mg Fe/kg). The fifth was model control group and was offered with iron-low diet (0.9 mg Fe/kg). Each groups were arranged to take drug one time by I.G (gavage) method per day and in the same time were supplemented with deionized water.
The test was sustained three days. Each rat's excrement was collected, dried at temperature 80-90° C., weighed and ground into 40-60 meshes. About 0.5 to 0.6 gram sample was taken and a mixture of nitric acid and perchloric acid at a ratio of 4:1 was added therein until completion of digestion. The constant volume is 10 ml. The iron content of excrement was determined by atomic absorption method and the iron absorptive rate for each rat can be calculated by the formula listed below. [formula]

The subject of the next data set is IDA. The settings on record: in vivo; cited from earlier work.

Experimental for Blood-loss Anemia Model: Ferrous gluconate, the positive control drug, yellow-green powder and 11% ferrous content, was purchased from Ganjian Pharmaceutical Company of Jianxi Province. Ferrous fumarate, 6.4% ferrous content, was purchased from the 18th Pharmaceutical Company of Shanghai. All drugs were diluted by distilled water.
7 groups were prepared as hemolytic anemia groups and one group was taken as normal control group supplemented with normal diet and water. The hemolytic anemia model was prepared by subjecting rats to inner canthus bloodletting of right eye through capillary glass tube. The first bloodletting content was 2.0 ml for each rat and in that time the range of hemochrome for rats was from 9.78 to 10.65 g %. Two days later, the second bloodletting (2 ml/rat) was carried out with the hemochrome values of 7.40-7.88 g %. The total bloodletting volume for each rat was 4 ml and was 32.9% in volume of the whole blood circulating the body.
While one hemolytic anemia group and one normal control group were taken as reference groups compared with other groups left. These two groups' rats were killed and the blood parameters were recorded. Other six groups now were randomly divided into three treatment groups of ferrous L-threonate with high, middle and low dosages respectively, two positive drugs control groups of ferrous gluconate and ferrous fumarate and one model group. At the end of 12 days and 18 days experimental periods, 5 and 10 rats of each group were killed correspondingly. During the course of experiment, the variations of hemochrome content were examined with 6 days interval.
While Element ferrous content 8.64 mg/kg as ferrous gluconate or ferrous fumarate was for positive drug control group. The groups for blood-loss anemia were provided iron-low diet and deionized water during the period of the administration of drugs, while the normal animal control group was provided normal diet and deionized water.

As for Ferrous gluconate [reference compound], in the data set on Hemolytic Anemia Model, the “Iron content of whole blood” value came to 286.04 ± 26.797 µg/mL. Also, the “Serum ferritin (SF)” value in the data set with Hemolytic Anemia Model worked out at 20.14 ± 2.83 ng/mL. The hemoglobin content with Hemolytic Anemia Model (after anemia (before treatment)) came to 6.57 g %; in the data set with Hemolytic Anemia Model (before anemia (baseline)), 15.34 g %; in the data set with Hemolytic Anemia Model (one week after treatment), 10.62 g %; in the data set with Hemolytic Anemia Model (two weeks after treatment), 12.65 g %. In addition, the Blood hemochrome content with Blood-loss Anemia Model (6 days after treatment) is 7.95 ± 0.30; in the data set with Blood-loss Anemia Model (12 days after treatment), 10.50 ± 0.61; in the data set on Blood-loss Anemia Model (18 days after treatment), 11.80 ± 0.63; in the data set on Blood-loss Anemia Model (before treatment) it was 7.50 ± 0.76. The “GPC (blood granulophilocyte)” value with Blood-loss Anemia Model (12 days) is listed as 12.66%; in the data set on Blood-loss Anemia Model (18 days), 9.04%. Moreover, the results for the RBC in the data set with Blood-loss Anemia Model (12 days) and with Blood-loss Anemia Model (18 days) were 4.488e+12 L⁻¹ and 5.14e+12 L⁻¹, respectively.

Consider `O=C(O)[C@H](O)[C@@H](O)CO` [Calcium L-threonate], for which, in the data set with lymphoma cells, the “uptake of vitamin C by the lymphoma cells” value is “can improve uptake of vitamin C by the lymphoma cells”.

ferrous sulfate [reference compound] showed an Absorptivity in data set [1] of 42.00 ± 1.02%. Also, in the data set with IDA, the side effects result is “limited because of its side effects”.

Regarding `O=C([O-])/C=C/C(=O)[O-].[Fe+2]` [Ferrous fumarate, reference compound], the Blood hemochrome content with Blood-loss Anemia Model (6 days after treatment) is on record as 7.80 ± 0.24; with Blood-loss Anemia Model (12 days after treatment), 10.12 ± 0.52; in the data set with Blood-loss Anemia Model (18 days after treatment), 11.84 ± 0.45; with Blood-loss Anemia Model (before treatment), 7.43 ± 0.85. The entries for the “GPC (blood granulophilocyte)” value in the data set on Blood-loss Anemia Model (12 days) and in the data set with Blood-loss Anemia Model (18 days) were 12.66% and 9.04%, respectively. Also, the RBC with Blood-loss Anemia Model (12 days) is 4.2e+12 L⁻¹; in the data set with Blood-loss Anemia Model (18 days), 5.14e+12 L⁻¹.
